Results: the NIST ThermoML archive (doi:10.1016/j.fluid.2015.07.045)
Numbers after ± are expanded uncertainties.

What was measured:
[1] = 298.15 K; 101.33 kPa; Liquid; Vibrating tube method
[2] = Boiling temperature at pressure P; details: 101.3 kPa; Liquid; Ebulliometric method (Recirculating still)

mass density [1] | Boiling temperature at pressure P [2] | SMILES
787.1 ± 0.4 kg/m3 | 64.54 ± 0.1 °C | CO [methanol]
927.3 ± 0.4 kg/m3 | 57.1 ± 0.1 °C | COC(C)=O [methyl ethanoate]

More lines, now with the values behind:

SMILES | mass density [1] | Boiling temperature at pressure P [2]
CCCCCCn1cc[n+](C)c1.[Br-] [3-hexyl-1-methyl-1H-imidazolium bromide] | 1229.2 ± 0.6 kg/m3 | 
C[n+]1ccn(Cc2ccccc2)c1.[Cl-] [1-benzyl-3-methyl-1H-imidazolium chloride] | 1192.8 ± 0.6 kg/m3 | 
CCCCCCn1cc[n+](C)c1.[Cl-] [1-hexyl-3-methylimidazolium chloride] | 1044.3 ± 0.5 kg/m3 | 
